Results reported in ChEMBL document CHEMBL5143714, “Discovery of BMS-986339, a Pharmacologically Differentiated Farnesoid X Receptor Agonist for the Treatment of Nonalcoholic Steatohepatitis” (J Med Chem, 2022).

Assays:
Cytochrome P450 2C9 = Cytochrome P450 2C9 (Homo sapiens, UniProt P11712); experiment: Inhibition of CYP2C9 in human liver microsomes using fluorogenic substrate preincubated for 15 min followed by NADPH addition measured after 2 hrs by fluorescence based assay; assay type: ADME, Microsome
[1] = Half life in C57BL6 mouse at 1 mg/kg, iv; assay type: ADME, organism-based; conditions: in vivo
[2] = AUC (total) in Sprague-Dawley rat at 2 mg/kg, po; assay type: ADME, organism-based; parameters: dose 2 mg/kg, route po; conditions: in vivo
[3] = Metabolic stability in mouse liver microsome assessed as parent compound remaining at […] measured after 10 mins; assay type: ADME; conditions: liver microsomes, read-out: Stability

Chain of Cytochrome P450 2C9 (P11712 whole entry): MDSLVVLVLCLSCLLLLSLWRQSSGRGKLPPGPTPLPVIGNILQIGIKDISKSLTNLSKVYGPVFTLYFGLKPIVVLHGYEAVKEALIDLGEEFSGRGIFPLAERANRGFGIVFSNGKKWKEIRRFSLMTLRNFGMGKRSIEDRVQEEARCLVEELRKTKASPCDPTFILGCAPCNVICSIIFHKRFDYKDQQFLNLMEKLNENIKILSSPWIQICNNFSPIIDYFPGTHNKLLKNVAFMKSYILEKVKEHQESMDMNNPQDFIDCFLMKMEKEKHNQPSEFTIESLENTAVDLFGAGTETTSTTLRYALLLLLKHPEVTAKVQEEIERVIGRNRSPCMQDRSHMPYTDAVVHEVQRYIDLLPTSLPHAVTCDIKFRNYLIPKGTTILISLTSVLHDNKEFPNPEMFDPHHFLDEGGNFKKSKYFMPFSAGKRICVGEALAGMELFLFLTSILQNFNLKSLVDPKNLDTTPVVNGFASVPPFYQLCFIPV

CC(C)(O)c1ccc(-c2cccc(N(CC34CCC(c5noc(C(C)(C)F)n5)(CC3)CC4)C(=O)[C@H]3C[C@](O)(C(F)(F)F)C3)c2)cc1
IC50 (Cytochrome P450 2C9): 8 µM | half-life [1]: 16 h | AUC [2]: 5.8 µM·h | remaining at 10 min [3]: 90%
